Assay results reported in patent publication EP4205733B1, “COMPOSITION FOR THE TREATMENT OF OSTEOPENIA AND OSTEOPOROSIS” (MIVELL S.R.L.S., priority 2021, dated 2023).

Legend:
Solubility test = type: physicochemical
Source text: Before proceeding with the cellular assays, the two ingredients have been tested for their solubility in several solvents, with the aim of identifying the best solubilizing agent (Table 2).

IL-1β = experiment: RTqPCR of mRNA levels of inflammatory cytokine IL-1β; type: cell-based, human; conditions: senescent BM-MSCs, 48h, vs untreated senescent BM-MSCs
Description: (§1) The experiments were conducted on mesenchymal stromal cells obtained from the bone marrow of a donor: BM-MSCs (Promocell). BM-MSCs were cultured in medium maintenance MSC-GM2 (PromoCell) with the addition of Supplement Mix and Penicillin-Streptomycin 1%, in humid atmosphere at 37°C, with 5% CO2. The proliferative capacity of this cell model was evaluated and characterized and the cellular senescence was assessed using p16, p21 expression and beta-galactosidase activity (data not shown). […]
(§2) The anti-inflammatory activity of the individual ingredients and the synergy between them have been assessed by the measurement of mRNA levels of the cytokines involved in inflammatory processes: IL-1β, IL-6, IL-8 and MCP-1 [Lencel et al., 2011; Mulholland et al., 2019]. […]
(§3) The pro-osteogenic activity of the individual components (pro-mineralizing and anti-inflammatory) and their combination was firstly determined through the analysis of the modulation of the mRNA levels of the osteogenic marker COL1α1 in young BM-MSCs cells. […] Furthermore, the pro-mineralizing and anti-inflammatory activity of the individual components and their combination was determined through the analysis of the modulation of the mRNA levels of the osteogenic marker ALP and of the pro-inflammatory markers IL-1β and MCP-1 in senescent BM-MSCs cells. […]

MCP-1 = experiment: RTqPCR of mRNA levels of inflammatory cytokine MCP-1; type: cell-based, human; conditions: senescent BM-MSCs, 48h, vs untreated senescent BM-MSCs
Description: as §1, §2, §3

Solubility test results: Organic solvents (Solubility test; organic solvents)	Solubility test results: Cremophor (Solubility test; solvent Cremophor)	Solubility test results: DMSO (Solubility test; solvent DMSO)	Solubility test results: PBS (Solubility test; solvent PBS)	Structure (SMILES)	IL-1β mRNA levels (IL-1β)	MCP-1 mRNA levels (MCP-1)
Not soluble	Soluble	Not soluble	Not soluble	CC(C)=CCC/C(C)=C/CC/C(C)=C/CC/C(C)=C/CC/C(C)=C/CC/C(C)=C/CC/C(C)=C/CC1=C(C)C(=O)c2ccccc2C1=O [Vitamin K2, Menaquinone-7]	–	–
–	–	–	–	OC[C@H]1O[C@@H](Oc2cc(O)cc(/C=C/c3ccc(O)cc3)c2)[C@H](O)[C@@H](O)[C@@H]1O [polydatin]	significantly decrease	significantly decrease
